Like-named read-outs stand apart in the source and are kept apart here.
Tests used:
[1] = test system: Phosphorylation of ERK1/2 in A549 cells; assay: Phospho-ERK1/2 MSD Assay (A549); assay type: cell-based; conditions: Homo sapiens, A549, 4 h, read-out: pERK IC50 (4 h, A549), 4 h compound treatment
[2] = target: GDP-bound KRAS protein (aa 1-169), containing both G12C and C118A amino acid substitutions (Homo sapiens (Human), UniProt P01116, C118A/G12C); assay: Coupled Nucleotide Exchange Assay; assay type: biochemical
Chain of GDP-bound KRAS protein (aa 1-169), containing both G12C and C118A amino acid substitutions (P01116 other isoform, or with tags, fused parts or gaps G12C/C118A): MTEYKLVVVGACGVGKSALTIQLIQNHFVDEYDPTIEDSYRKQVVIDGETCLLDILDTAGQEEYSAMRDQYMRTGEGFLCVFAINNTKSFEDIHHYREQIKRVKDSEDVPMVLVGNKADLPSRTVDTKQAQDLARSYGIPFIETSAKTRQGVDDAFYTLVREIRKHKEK
Description: For compounds in Table 9, the following assay conditions were employed:
Coupled Nucleotide Exchange Assay:
The assay plates were then read on a PerkinElmer EnVision Multilabel Reader, using AlphaScreen® technology, and data were analyzed using a 4-parameter logistic model to calculate IC50 values.

[3] = second Coupled Exchange column, read-out: Coupled Exchange IC50
[4] = third Coupled Exchange column, compound pre-incubation probably 20 hours (rest of head not shown; b435 lists 5 min, 2 hours or 20 hours), read-out: Coupled Exchange IC50
[5] = first Coupled Exchange column, compound pre-incubation probably 5 min (rest of head not shown; b435 lists 5 min, 2 hours or 20 hours), read-out: Coupled Exchange IC50
[6] = read-out: Coupled Exchange IC50 (5 min), 5 min compound pre-incubation
[7] = read-out: Coupled Exchange IC50 (2 h), 2 h compound pre-incubation
[8] = read-out: Coupled Exchange IC50 (20 h), 20 h compound pre-incubation

| SMILES | IC50 [2, 7] | IC50 [2, 8] | further results |
| --- | --- | --- | --- |
| C=CC(=O)N1CC(NC(=O)Cn2cc(C(=O)NCCc3ccccc3)c3cc(Br)ccc32)C1 [Example 140] |  |  | IC50 [1]: > 100 µM |
| C=CC(=O)N1CC(NC(=O)Cn2c(C)c(C(=O)N3CCc4c(cccc4OC)C3)c3cc(Br)ccc32)C1C (centres unmarked) [Example 44] |  |  | IC50 [1]: > 100 µM |
| C=CC(=O)N1CC(NC(=O)Cn2cc(C(=O)N3CCc4c(Cl)cccc4C3)c3cc(Br)ccc32)C1 [Example 109] |  |  | IC50 [1]: 21.3 µM |
| C=CC(=O)N1CC(NC(=O)Cn2c(C#N)c(I)c3cc(Br)ccc32)C1 [Example 304] |  |  | IC50 [2, 3]: 7.24 µM; IC50 [2, 4]: 1.24 µM |
| C=CC(=O)N1CC(n2nncc2Cn2ccc3cc(Br)ccc32)C1 [Example 359] |  |  | IC50 [2, 5]: > 250 µM; IC50 [2, 4]: 7.66 µM |
| C=CC(=O)N1CC(N(C)C(=O)Cn2ccc3cc(Br)c(C)cc32)C1 [Example 357] |  |  | IC50 [2, 5]: > 250 µM; IC50 [2, 4]: 6.78 µM |
| C=CC(=O)N1CC(NC(=O)Cn2cc(Br)c3cc([N+](=O)[O-])ccc32)C1 [Example 233] | 11.4 µM | 1.58 µM | IC50 [2, 6]: > 250 µM |
| C=CC(=O)N1CC(NC(=O)Cn2ccc3cc(-c4ccccc4)ccc32)C1 [Example 237] | > 250 µM | > 250 µM |  |
| C=CC(=O)N1CC(NC(=O)Cn2ccc3c(C)c(Br)ccc32)C1 [Example 349] |  |  | IC50 [2, 5]: > 250 µM; IC50 [2, 4]: 3.21 µM |
| C=CC(=O)N1CC(NC(=O)Cn2c3ccc(Br)cc3c3ccc(Oc4ccc(F)cc4)nc32)C1 [Example 234] | > 250 µM | 0.32 µM |  |
| C=CC(=O)N1CC(NC(=O)Cn2ccc3c(Cl)c(Cl)ccc32)C1 [Example 317] |  |  | IC50 [2, 3]: 15.5 µM |
| C=CC(=O)N1CC(N(C)C(=O)Cn2c(C)cc3cc(Br)ccc32)C1 [Example 348] |  |  | IC50 [2, 5]: 235 µM; IC50 [2, 4]: 1.22 µM |
| C=CC(=O)N1CC(NC(=O)Cn2cc(CC#N)c3cc(Br)ccc32)C1 [Example 214] | 33.8 µM | 4.48 µM |  |
| C=CC(=O)N1CC(NC(=O)Cn2c(C)c(-c3cncnc3C(C)C)c3cc(Cl)cc(C)c32)C1 [Example 338] |  |  | IC50 [2, 5]: 2.87 µM |
| C=CC(=O)N1CC(NC(=O)Cn2c3c(c4cc(Br)ccc42)CCN(C(=O)OCc2ccccc2)C3)C1 [Example 227] | 12.3 µM | 2.61 µM |  |
| C=CC(=O)N1CC(NC(=O)Cn2ccc3ccc(Cl)cc32)C1 [Example 202] | > 250 µM | > 250 µM |  |
| C=CC(=O)N1CC(NC(=O)Cn2cc(-c3ccc4ccccc4c3)c3cc(Br)cc(C)c32)C1 [Example 264] | 9.6 µM | 2.75 µM |  |
| C=CC(=O)N1CC(NC(=O)CN2Cc3c(n(C(C)=O)c4ccc(Br)cc34)C2)C1 [Example 242] | > 250 µM | 7.66 µM |  |
| C=CC(=O)N1CC(NC(=O)Cn2cc(-c3cnn(C)c3)c3cc(Cl)ccc32)C1 [Example 197] | 24.5 µM | 5.51 µM |  |
| C=CC(=O)N1CC(NC(=O)Cn2ccc3cc(F)ccc32)C1 [Example 198] | > 250 µM | > 250 µM |  |
| C=CC(=O)N1CC(NC(=O)Cn2c(C)c(-c3cccnc3OCC(C)C)c3cc(Cl)cc(C)c32)C1 [Example 345] |  |  | IC50 [2, 5]: 4.43 µM |
| C=CC(=O)N1CC(N(C)C(=O)Cn2ccc3c(C)c(Br)ccc32)C1 [Example 350] |  |  | IC50 [2, 5]: 237 µM; IC50 [2, 4]: 1.53 µM |

| SMILES | IC50 [2, 7] | IC50 [2, 8] | further results |
| --- | --- | --- | --- |
| C=CC(=O)N1CC(NC(=O)Cn2ccc3c(Cl)cccc32)C1 [Example 199] | > 250 µM | 21.6 µM |  |
| C=CC(=O)N1CC(NC(=O)Cn2cc(-c3cccc(C(C)C)c3)c3cc(Br)cc(C)c32)C1 [Example 268] | 6.81 µM | 1.62 µM |  |
| C=CC(=O)N1CC(NC(=O)Cn2c(-c3ccncc3)cc3ccccc32)C1 [Example 215] | > 250 µM | > 250 µM |  |
| C=C(CCO)C(=O)N1CC(NC(=O)Cn2c(C)c(C(=O)N3CCc4c(cccc4OC)C3)c3cc(Br)ccc32)C1 [Example 313] |  |  | IC50 [2, 3]: > 250 µM |
| C=CC(=O)N1CC(N(C)C(=O)Cn2ccc3cc(Cl)ccc32)C1 [Example 358] |  |  | IC50 [2, 5]: > 250 µM; IC50 [2, 4]: 3.2 µM |
| C=CC(=O)N1CC(NC(=O)Cn2c(C(=O)OC)cc3c(Cl)c(Cl)ccc32)C1 [Example 220] | 12.2 µM | 1.89 µM |  |
| C=CC(=O)N1CC(NC(=O)Cn2ccc3ccc(Br)cc32)C1 [Example 182] | > 250 µM | > 250 µM |  |
| C=CC(=O)N1CC(NC(=O)Cn2cc(C)c3cc(Br)ccc32)C1 [Example 194] | 30.1 µM | 2.23 µM | IC50 [2, 6]: 151 µM |
| C=CC(=O)N1CC(NC(=O)Cn2ccc3cccc(CC#N)c32)C1 [Example 360] |  |  | IC50 [2, 5]: > 250 µM; IC50 [2, 4]: > 250 µM |
| C=CC(=O)N1CC(NC(=O)Cn2cc(C(=O)C(=O)O)c3ccccc32)C1 [Example 201] | > 250 µM | > 250 µM |  |
| C=CC(=O)N1CC(NC(=O)Cn2c3ccc(Br)cc3c3ccc(Cl)nc32)C1 [Example 218] | > 250 µM | > 250 µM |  |
| C=CC(=O)N1CC(NC(=O)Cn2ccc3cc(Cl)ccc32)C1 [Example 187] | > 250 µM | 7.27 µM | IC50 [2, 6]: > 250 µM |
| C=CC(=O)N1CC(NC(=O)Cn2c3c(c4cc(Br)ccc42)CCN(Cc2ccccc2)C3)C1 [Example 239] | > 250 µM | 44 µM |  |
| C=CC(=O)N1CC(NC(=O)Cn2c3ccc(Br)cc3c3ccncc32)C1 [Example 259] | 26.8 µM | 2.88 µM |  |
| C=CC(=O)N1CC(NC(=O)Cn2cc(-c3cccc(-c4ccccc4)c3)c3cc(Br)cc(C)c32)C1 [Example 265] | > 250 µM | 3.24 µM |  |
| C=CC(=O)N1CC(NC(=O)Cn2cc(C(C)(O)C(=O)NCc3ccccc3)c3cc(Br)ccc32)C1 (centres unmarked) [Example 253] | 19.4 µM | 2.31 µM |  |
| C=CC(=O)N1CC(NC(=O)Cn2c(C)c(-c3cnccc3C3=CCC(C)CC3)c3cc(Cl)cc(C)c32)C1 (centres unmarked) [Example 334] |  |  | IC50 [2, 5]: 0.37 µM |
| C=CC(=O)N1CC(NC(=O)Cn2cc(CC(=O)N3CCCCC3CN3CCCCC3)c3cc(Br)ccc32)C1 (centres unmarked) [Example 326] |  |  | IC50 [2, 5]: 26.1 µM |
| C=CC(=O)N1CC(NC(=O)Cn2ccc3cc([N+](=O)[O-])ccc32)C1 [Example 232] | > 250 µM | 94.1 µM |  |
| C=CC(=O)N1C[C@H](NC(=O)Cn2ccc3cc(Br)ccc32)[C@@H]1C [Example 363] |  |  | IC50 [2, 5]: > 250 µM; IC50 [2, 4]: 2.22 µM |
| C=CC(=O)N1CC(CO)(NC(=O)Cn2ccc3cc(Br)ccc32)C1 [Example 353] |  |  | IC50 [2, 5]: 182 µM; IC50 [2, 4]: 92.6 µM |
| C=CC(=O)N1CC(NC(=O)Cn2ccc3ccccc32)C1 [Example 183] | > 250 µM | > 250 µM |  |

| SMILES | IC50 [2, 7] | IC50 [2, 8] | further results |
| --- | --- | --- | --- |
| C=CC(=O)N1CC(NC(=O)Cn2c(C)c(-c3ccccc3C(C)(C)C)c3cc(Cl)ccc32)C1 [Example 318] |  |  | IC50 [2, 5]: 16.2 µM; IC50 [2, 3]: 98.9 µM |
| C=CC(=O)N1CC(NC(=O)Cn2cc(CC(=O)NCC3Cc4ccccc4CN3C)c3cc(Br)ccc32)C1 (centres unmarked) [Example 331] |  |  | IC50 [2, 5]: 22.4 µM |
| C=CC(=O)N1CC(NC(=O)Cn2c(C)c(-c3cccnc3Br)c3cc(Cl)ccc32)C1 [Example 305] |  |  | IC50 [2, 3]: 2.98 µM; IC50 [2, 4]: 0.81 µM |
| C=CC(=O)N1CC(NC(=O)Cn2c(C)c(-c3nccnc3Cl)c3cc(Cl)ccc32)C1 [Example 281] |  |  | IC50 [2, 3]: 13.6 µM; IC50 [2, 4]: 2.32 µM |
| C=CC(=O)N1CC(NC(=O)Cn2ccc3c(F)c(Br)ccc32)C1 [Example 255] | > 250 µM | 4.89 µM |  |
| C=CC(=O)N1CC(NC(=O)Cn2cc(CC(=O)N3CCCC4(CCCN(C)C4)C3)c3cc(Br)ccc32)C1 (centres unmarked) [Example 322] |  |  | IC50 [2, 3]: 2.07 µM |
| C=CC(=O)N1CC(NC(=O)Cn2cc(Cc3ccccc3)c3cc(Br)ccc32)C1 [Example 231] | 10.3 µM | 2.05 µM |  |
| C=CC(=O)N1CC(NC(=O)Cn2c(C)c(-c3ncccc3Cl)c3cc(Cl)ccc32)C1 [Example 306] |  |  | IC50 [2, 3]: 9.53 µM; IC50 [2, 4]: 1.64 µM |
| C=CC(=O)N1CC(NC(=O)Cn2cc(CC(=O)N3CCC4(CCOCC4)C3)c3cc(Br)ccc32)C1 [Example 328] |  |  | IC50 [2, 5]: 31 µM |
| C=CC(=O)N1CC(NC(=O)Cn2cc(-c3cccc(C#N)c3)c3cc(Br)ccc32)C1 [Example 216] | 12.9 µM | 3 µM |  |
| C=CC(=O)N1CC(NC(=O)Cn2c3c(c4cc(Br)ccc42)CN(C(C)=O)CC3)C1 [Example 251] | > 250 µM | 7.91 µM |  |
| C=CC(=O)N1CC(NC(=O)Cn2c(C=O)cc3cc(Br)ccc32)C1 [Example 185] | > 250 µM | 15.9 µM |  |
| C=CC(=O)N1CC(NC(=O)Cn2cc(-c3cocn3)c3ccc(-c4ccccc4Cl)cc32)C1 [Example 219] | > 250 µM | 2.87 µM |  |
| C=CC(=O)N1CC(NC(=O)Cn2c(C)c(-c3cnccc3C3=CCCCCC3)c3cc(Cl)cc(C)c32)C1 [Example 340] |  |  | IC50 [2, 5]: 0.89 µM |
| C=CC(=O)N1CC(NC(=O)Cn2cc(CC(=O)NCc3ccccc3)c3cc(Br)ccc32)C1 [Example 226] | 8.23 µM | 1.66 µM |  |
| C=CC(=O)N1CC(NC(=O)Cn2ccc3cccc(Cl)c32)C1 [Example 203] | > 250 µM | > 250 µM |  |
| C=CC(=O)N1CC(NC(=O)Cn2cc(I)c3ccccc32)C1 [Example 212] | 27.4 µM | 6.8 µM | IC50 [2, 6]: > 250 µM |
| C=CC(=O)N1CC(NC(=O)Cn2cc(-c3ccc4ccccc4c3)c3cc(-c4ccc5ccccc5c4)cc(C)c32)C1 [Example 263] | > 250 µM | 16.3 µM |  |
| C=CC(=O)N1C[C@H](N(C)C(=O)Cn2ccc3cc(Br)ccc32)[C@@H]1C [Example 364] |  |  | IC50 [2, 5]: > 250 µM; IC50 [2, 4]: 8.14 µM |
| C=CC(=O)N1CC(NC(=O)Cn2ccc3cc(CC)ccc32)C1 [Example 277] |  |  | IC50 [2, 3]: > 250 µM; IC50 [2, 4]: > 250 µM |

Source: patent US11053226B2, “KRAS G12C inhibitors and methods of using the same” (Amgen Inc., priority 2018, dated 2021)
